Laboratory results from US20190369122A1, “METABOLIC DISORDERS” (priority 2016, published 2019).

Experiments:
mTORC2 = assay: mTOR modification in mTORC2 (Rictor immunoprecipitation), HEK293; type: cell-based, human
Description: (§1) Snap-frozen liver and harvested cells were lysed in buffer containing 50 mM Tris-HCl (pH 7.4), 150 mM NaCl, 1 mM EDTA, 1 mM Na3VO4, 20 mM NaF, 10 mM glycerophosphate, 1 mM PMSF, 10% glycerol, 1% Triton X-100 and protease inhibitor cocktail. For immunoprecipitation, the cell lysates were obtained in 0.3% CHAPS-containing lysis buffer, sonicated and centrifuged at 20,000 g for 15 min at 4° C., and the supernatant was incubated with 20 μl of anti-FLAG beads (Sigma) at 4° C. for 4 h under gentle agitation.

mTORC1 = assay: mTOR modification in mTORC1 (Raptor immunoprecipitation), HEK293; type: cell-based, human
Description: as §1

[1] = tested on: mTORC1-Rag heterodimer complex-p62; assay: Immunoprecipitation of FLAG mTOR: p62/Rag GTPases/mTORC1 complex formation; type: cell-based, human; conditions: HEK293; 100 μM, absence of amino acids, 1 h
Description: as §1
(§2) HEK293 cells (ATCC CRL-1573) were grown and maintained in high-glucose (4.5 g/l glucose) DMEM with 10% (v/v) FBS. All HEK293 cell experiments were performed in serum-starved and amino acid-deprived conditions. 24 h after transfection (with plasmids or siRNA as indicated), HEK293 cells cultured in poly-L-lysine-coated 60 mm dishes were rinsed twice with DMEM without FBS and incubated in serum-free DMEM for 18 h. HEK293 cells were then washed once with EBSS and incubated in EBSS for 1 h.

CONVR mice = assay: Metabolic cages (PhenoMaster) in CONVR mice; type: in vivo, mouse; conditions: 100 μg i.p. twice a day for 3 days
Description: Mice were singly housed for two days before being transferred to the PhenoMaster cages, and allowed an additional 2 days to acclimatize to the new cage before taking measurements. Parameters were automatically measured every 15 min for 5 days. During the measurements, the mice had free access to water and food. […] Oxygen consumption (VO2) was calculated from measurements of oxygen and carbon dioxide concentration in the reference cage compared to the sample cage. Measurements of oxygen consumption and energy expenditure were adjusted to lean body mass, which was determined by MRI (EchoMRI, Houston, Tex., USA).

IRS1 = assay: Ubiquitination of IRS1; type: cell-based; conditions: 6 h treatment
Description: Cells were lysed under denaturing condition with 100 μl buffer A containing 2% SDS, and the cell lysates were transferred to a 1.5-ml microcentrifuge tube. The tube was placed on a hot plate immediately at 95° C. for 10 min. The cell lysates were sonicated and 700 μl of buffer A without SDS was added. The samples were incubated at 4° C. for 30 min, followed by centrifugation (20,000 g, 20 min). The supernatant was incubated with 20 μl of anti-FLAG beads (Sigma) at 4° C. for 4 h under gentle agitation.

primary hepatocytes = assay: Insulin signaling in primary hepatocytes (immunoblot); type: cell-based, mouse
Description: as §1
Primary hepatocytes were isolated from C57BL/6J mice by digesting liver with perfusion of collagenase type IV as described previously. After perfusion, 16×10^5 cells were plated on collagen-coated 60 mm dishes in Dulbecco's modified Eagle's medium (DMEM)/F12 supplemented with fetal bovine serum (FBS), penicillin/streptomycin and 100 nM dexamethasone. After 4 h, the medium was changed to DMEM/F12 containing penicillin/streptomycin.

HEK293 cells [2] = assay: Immunofluorescence of mTOR and LAMP2 in HEK293 cells; type: cell-based, human; conditions: amino acid-deprived HEK293; 100 μM for 1 h
Description: Cells were grown on poly-L-lysine (Sigma) coated 4 well chamber slides, fixed with 4% paraformaldehyde for 15 min at 37° C., then washed with glycine-PBS and permeablized with 0.3% Triton X-100 for 10 min. After blocking with 3% BSA in PBS, cells were stained for mTOR and LAMP2. Images were obtained by confocal microscope.

HEK293 cells [3] = assay: siRNA knock-down in HEK293 cells, ImP-induced signaling; type: cell-based, human; conditions: HEK293 transfected with control or p38δ/p38γ siRNA
Description: as §2
FLAG mTOR and HA Raptor were kindly provided by Dr Sung Ho Ryu (Pohang University of Science and Technology, Pohang, South Korea). Myc-Rag GTPases constructs were gifts from Dr Do-Hyung Kim (University of Minnesota, Minn., USA). AIIStars negative control siRNA, p38δ siRNA1 (Hs_MAPK13_5 targeting […] (SEQ ID NO: 15)), p38δ siRNA2 (Hs_MAPK13_6 targeting […] (SEQ ID NO: 16)), p38γ siRNA1 (Hs_MAPK12_5 targeting […] (SEQ ID NO: 17)), p38γ siRNA2 (Hs_MAPK12_8 targeting […] (SEQ ID NO: 18)), p38α siRNA (Hs_MAPK14_5 targeting […] (SEQ ID NO: 21)), p38β siRNA (Hs_MAPK11_6 targeting […] (SEQ ID NO: 22)), S6K1 siRNA (Hs_RPS6KB1_5 targeting […] (SEQ ID NO: 23)) and Raptor siRNA (Hs_RPTOR_1 targeting […] (SEQ ID NO: 24)) (Qiagen, Valencia, Calif.) were transfected into HEK293 cells using Lipofectamin 2000 according to the manufacturer's instructions.

GF mice = assay: Intraperitoneal glucose tolerance test in GF mice; type: in vivo, mouse; conditions: 500 μg i.p. twice per day for 3 days
Description: An intraperitoneal glucose tolerance test (using 1 g glucose per kg body weight) was then performed after a 4 h fast. Blood glucose levels were measured from tail blood using HemoCue201+analyzer (HemoCue, Angelholm, Sweden). Liver and plasma samples were collected after a 4 h fast. Mice were under isoflurane anesthesia and killed by cervical dislocation. Fresh liver was taken and snap-frozen in liquid nitrogen and stored at −80° C. until protein extraction.

## O=C(O)CCc1cnc[nH]1 [imidazole propionate]
mTORC2; HEK293, 2 h incubation
  modulation of mTORC2: not
mTORC2; Rictor immunoprecipitation
  mTOR S2448 or S2481 phosphorylation in mTORC2: unaffected
mTORC1; HEK293, 2 h incubation
  modulation of mTORC1: specifically modulated
mTORC1; Raptor immunoprecipitation
  mTOR S2448 phosphorylation in mTORC1: strongly induced
  mTOR S2481 phosphorylation in mTORC1: not
[1]
  formation of the mTORC1-Rag heterodimer complex-p62: induced
CONVR mice
  energy expenditure in the early dark phase: significantly reduced
  total locomotor activity: not significantly reduced
IRS1
  ubiquitination of IRS1: promoted
Primary hepatocytes; 100 μM for 8 h
  IRS protein levels: did not affect
Primary hepatocytes; 100 μM for 8 h, insulin 5 nM
  insulin-induced IRS1 Y612 phosphorylation: blunted
Primary hepatocytes; 100 μM for 20 h
  IRS protein levels: reduced
Primary hepatocytes; 8 h
  basal Akt phosphorylation at both S473 and T308: induced
Primary hepatocytes; 8 h, insulin 5 nM
  insulin-induced Akt S473 phosphorylation: reduced
  insulin-induced Akt T308 phosphorylation: not
Primary hepatocytes; 14 h
  IRS1 level: dramatic reduction
  basal Akt phosphorylation at S473 and T308: increase
  insulin-induced Akt S473 phosphorylation: lower
Primary hepatocytes; 14 h, vs vehicle
  insulin-induced Akt T308 phosphorylation: higher
Primary hepatocytes; ImP 100 μM
  S6K1 phosphorylation: increased
Primary hepatocytes; ImP 100 μM for 24 h
  p62 phosphorylation: induced
HEK293 cells [2]
  lysosomal localization of mTOR: induced
HEK293 cells [3]
  DEPTOR level: not affected
GF mice
  glucose tolerance: significant glucose intolerance
